Experimental data taken from patent publication US9157122B2, “Method of diagnosing cancer and reagents therefor” (Garvan Institute of Medical Research, priority 2004, dated 2015).

Key:
Assay type in all cases: cell-based, human
HCT116 cells [1] = assay: Real-time RT-PCR gene expression in HCT116 cells treated with 5-Aza-2′-deoxycytidine and/or TSA; details: for expression of CpG island-associated genes that are unmethylated and transcriptionally repressed: DDX18, INSIG2, PTPN, RALBB, TSN, FIG. 16g-k; for expression of genes hypermethylated in HCT116 (EN1, SCTR and INHBB): genes linked to 2q14.2, FIG. 16b, c and d
Procedure: RNA was extracted using Trizol reagent (Invitrogen) according to the manufacturer's protocol. cDNA was reverse transcribed from 2 μg of total RNA using SuperScriptTM III RNase H^- Reverse Transcriptase (Invitrogen Life technologies), according to the manufacturer's instructions. The reaction was primed with 200 ng of random hexamers (Roche). The reverse transcription reaction was then diluted 1:20 with sterile H2O before addition to a PCR reaction. […] The primers used for amplification comprise a sequence set forth in any one of SEQ ID Nos 119 to 218. Primers were used in a combination described herein. To control for the amount and integrity of the RNA, the Human 18S ribosomal RNA (rRNA) kit (P/N 4308329) (Applied Biosystems), containing the rRNA forward and reverse primers and rRNA VICTM probe, was used. 5 μl of the reverse transcription was used in a 20 μl reaction in TaqMan Universal PCR Master Mix (P/N 4304437) with 1 μl of the 20× Human 18S rRNA mix. The reactions were performed in triplicate and the standard deviation was calculated using the Comparative method (ABI PRISM 7700 Sequence Detection system User Bulletin #2, […] 4303859). The cycle number corresponding to where the measured fluorescence crosses a threshold is […] to the amount of starting material. The mean expression levels are represented as the ratio between each gene and 18S rRNA expression. The colon cancer cell line HCT116 was cultured in D-MEM/F12 (Gibco/BRL) medium supplemented with MEM sodium pyruvate and L-Glutamine and 10% fetal calf serum at 37° C. with 10% CO2. Cells were split 1:8 every 3-4 days. Cells were split 12 h to 24 h prior to treatment. 5-Aza-2'-deoxycytidine (5-aza-dC)(Sigma) was prepared as a 1 mg/ml stock in sterile water, filter-sterilized and frozen as aliquots. 100 mm tissue culture dishes were seeded with 0.5×10^6 cells and following 24 h incubation the cells were treated with 0.5 μm 5-aza-dC. The cells were treated for 24 hours after which the medium was replaced with fresh medium and the cells cultured for a further 48 h before harvesting. Cells were treated with trichostatin A (TSA) (Sigma) at 25, 50 and 100 nM for 24 h. Alternatively, an identical volume of ethanol was used as a control. For co-treatment of cells with 5-aza-dC and TSA, 5-aza-dC was added initially for 24 h, after which it was removed and TSA was added for a further 24 h. The concentrations and the treatment conditions used were chosen based on preliminary studies showing optimal reactivation of gene expression. Expression levels of the genes DDX18, INSIG2, EN1, MARCO, PTPN4, RALBB, GLI2 and TSN was determined essentially as described above.

HCT116 cells [2] = assay: ChIP assay with anti-dimethyl-histone H3(lys9) antibody in treated HCT116 cells, real-time PCR; details: relative to untreated cells; for methylation of H3-K9 histones associated with the p21 CpG island promoter region: FIG. 17a; for methylation of H3-K9 histones associated with the unmethylated genes (DDX18, INSIG2, PTPN, RALBB): FIG. 17g-k; for binding of methylated K9-H3 histones to DNA methylated genes (EN1, SCTR, INHBB, GLI2, MARCO): FIGS. 17b-f
Procedure: ChIP assays were carried out according to the manufacturer (Upstate Biotechnology) and described in Stirzaker et al., Cancer Res 64: 3871-3877, 2004. Briefly, 1×10^6 HCT116 cells, in a 10 cm dish, were fixed by adding formaldehyde at a final concentration of 1% and incubating for 10 minutes at 37° C. The cells were washed twice with ice cold PBS containing protease inhibitors (1 mM phenylmethylsulfonyl fluoride (PMSF), 1 μg/ml aprotinin and 1 μg/ml pepstatin A), harvested and treated with SDS lysis buffer for 10 min on ice. The resulting lysates were sonicated to shear the DNA to fragment lengths of 200 to 500 basepairs. […] No antibody controls were also included for each ChIP assay and no precipitation was observed. The antibody/protein complexes were collected by salmon sperm DNA/protein A agarose slurry and washed several times following the manufacturer's instructions. The immune complexes were eluted with 1% SDS and 0.1 M NaHCO3 and the crosslinks were reversed by incubation at 65° C. for 4 hours in the presence of 200 mM NaCl. The samples were treated with proteinase K for 1 hour and the DNA was purified by phenol/chloroform extraction, ethanol precipitation and resuspended in 30 μl H2O. The amount of target that was immunoprecipitated, was measured by Real-Time PCR using the ABI Prism 7900HT Sequence Detection System. Amplification primers are set forth SEQ ID NOs: 235 to 256. PCR reactions were set up according to the SDS compendium (ver 2.1) for the 7900HT Applied Biosystems Sequence Detector as described previously (Stirzaker, supra). Either immunoprecipitated DNA, no-antibody control or input chromatin were used in each PCR and the PCRs were set up in triplicate. Standard deviation was calculated using the Comparative method (ABI PRISM 7700 Sequence Detection System User Bulletin #2, […] 4303859). For each sample an average CT value was obtained for immunoprecipitated material and for the input chromatin. The difference in CT values (delta CT) reflects the difference in the amount of material that was immunoprecipitated relative to the amount of input (ABI PRISM 7700 Sequence Detection system User Bulletin #2, […] 4303859). To determine if chromatin modification was associated with the suppression of all the genes across the entire band in cancer, regardless of the DNA methylation status, ChIP (chromatin immunoprecipitation) analysis and real-time PCR was performed.

HCT116 cells [3] = assay: ChIP assay with anti-acetylated histone antibody in treated HCT116 cells, real-time PCR; details: relative to untreated cells, FIG. 18
Procedure: ChIP assays were carried out according to the manufacturer (Upstate Biotechnology) and described in Stirzaker et al., Cancer Res 64: 3871-3877, 2004. Briefly, ˜1×10^6 HCT116 cells, in a 10 cm dish, were fixed by adding formaldehyde at a final concentration of 1% and incubating for 10 minutes at 37° C. The cells were washed twice with ice cold PBS containing protease inhibitors (1 mM phenylmethylsulfonyl fluoride (PMSF), 1 μg/ml aprotinin and 1 μg/ml pepstatin A), harvested and treated with SDS lysis buffer for 10 min on ice. The resulting lysates were sonicated to shear the DNA to fragment lengths of 200 to 500 basepairs. The complexes were immunoprecipitated with an antibody specific for dimethyl-histone H3(lys9), Upstate Biotechnology (#07-212) or acetylated histone. […]
The amount of target that was immunoprecipitated, was measured by Real-Time PCR using the ABI Prism 7900HT Sequence Detection System. […] Standard deviation was calculated using the Comparative method (ABI PRISM 7700 Sequence Detection System User Bulletin #2, 1997 (P/N 4303859). For each sample an average CT value was obtained for immunoprecipitated material and for the input chromatin. The difference in CT values (delta CT) reflects the difference in the amount of material that was immunoprecipitated relative to the amount of input (ABI PRISM 7700 Sequence Detection system User Bulletin #2, 1997 (P/N 4303859).

Structure (SMILES)	expression of CpG island-associated genes that are unmethylated and transcriptionally repressed (HCT116 cells [1])	expression of genes hypermethylated in HCT116 (EN1, SCTR and INHBB) (HCT116 cells [1])	methylation of H3-K9 histones associated with the p21 CpG island promoter region (HCT116 cells [2])	methylation of H3-K9 histones associated with the unmethylated genes (DDX18, INSIG2, PTPN, RALBB) (HCT116 cells [2])	binding of methylated K9-H3 histones to DNA methylated genes (EN1, SCTR, INHBB, GLI2, MARCO) (HCT116 cells [2])	p21 expression activated (control gene) (HCT116 cells [1]; 0.5 μm 5-aza-dC 24 h, TSA 24 h, co-treatment 5-aza-dC 24 h then TSA 24 h, normalised to 18S RNA, FIG. 16a)	H3-K9 acetylation for genes hypermethylated in HCT116 cells (HCT116 cells [3])
Nc1ncn([C@H]2C[C@H](O)[C@@H](CO)O2)c(=O)n1 [5AzaC, 5-Aza-2′-deoxycytidine]	some reactivation	small increases of expression	Demethylation of the H3-K9 histones also occurred	resulted in demethylation	binding was reduced		
CC(/C=C/C(=O)NO)=C\[C@@H](C)C(=O)c1ccc(N(C)C)cc1 [TSA, trichostatin A]	some reactivation	small increases of expression	substantial demethylation	substantial demethylation	binding was reduced	more than 3 fold	Increased H3-K9 acetylation
